Laboratory results: ChEMBL document CHEMBL2417443, “Efficient synthesis and antiproliferative activity of novel thioether-substituted flavonoids” (Eur J Med Chem, 2013)

Experiments:
[1] = system: HEp-2; experiment: Ratio of 5-fluorouracil IC50 to compound IC50 for human Hep2 cells; format: functional
[2] = system: MCF7; experiment: Ratio of 5-fluorouracil IC50 to compound IC50 for human MCF7 cells; format: functional
[3] = system: HeLa; experiment: Ratio of 5-fluorouracil IC50 to compound IC50 for human HeLa cells; format: functional
[4] = system: SW480; experiment: Cytotoxicity against human SW480 cells after 72 hrs by MTT assay; format: functional, cell-based; details: SW480, 72 h
[5] = system: HeLa; experiment: Cytotoxicity against human HeLa cells after 72 hrs by MTT assay; format: functional, cell-based
[6] = Ratio of 5-fluorouracil IC50 to compound IC50 for human MDA-MB-435S cells; format: functional
[7] = Ratio of 5-fluorouracil IC50 to compound IC50 for human LM7 cells; format: functional
[8] = system: MCF7; experiment: Cytotoxicity against human MCF7 cells after 72 hrs by MTT assay; format: functional, cell-based; details: MCF7, 72 h
[9] = Cytotoxicity against human LM7 cells after 72 hrs by MTT assay; format: functional, cell-based; details: LM7, 72 h
[10] = system: SW480; experiment: Ratio of 5-fluorouracil IC50 to compound IC50 for human SW480 cells; format: functional
[11] = system: HEp-2; experiment: Cytotoxicity against human Hep2 cells after 72 hrs by MTT assay; format: functional, cell-based; details: HEp-2, 72 h
[12] = Cytotoxicity against human MDA-MB-435S cells after 72 hrs by MTT assay; format: functional, cell-based
[13] = system: SW480; experiment: Cell cycle arrest in human SW480 cells assessed as accumulation at S phase at 0.8 uM after 48 hrs by propidium iodide staining-based flow cytometry (reference value: 14.01 +/- 0.86%); format: functional
[14] = system: SW480; experiment: Cell cycle arrest in human SW480 cells assessed as accumulation at G2/M phase at 1.2 uM after 48 hrs by propidium iodide staining-based flow cytometry (reference value: 13.99 +/- 0.35%); format: functional
[15] = system: SW480; experiment: Cell cycle arrest in human SW480 cells assessed as accumulation at G0/G1 phase at 1.2 uM after 48 hrs by propidium iodide staining-based flow cytometry (reference value: 72.00 +/- 4.30%); format: functional
[16] = system: SW480; experiment: Cell cycle arrest in human SW480 cells assessed as accumulation at G0/G1 phase at 0.8 uM after 48 hrs by propidium iodide staining-based flow cytometry (reference value: 72.00 +/- 4.30%); format: functional
[17] = system: SW480; experiment: Cell cycle arrest in human SW480 cells assessed as accumulation at S phase at 1 uM after 48 hrs by propidium iodide staining-based flow cytometry (reference value: 14.01 +/- 0.86%); format: functional
[18] = system: SW480; experiment: Cell cycle arrest in human SW480 cells assessed as accumulation at G0/G1 phase at 1 uM after 48 hrs by propidium iodide staining-based flow cytometry (reference value: 72.00 +/- 4.30%); format: functional
[19] = system: SW480; experiment: Cell cycle arrest in human SW480 cells assessed as accumulation at G2/M phase at 1 uM after 48 hrs by propidium iodide staining-based flow cytometry (reference value: 13.99 +/- 0.35%); format: functional
[20] = system: SW480; experiment: Cell cycle arrest in human SW480 cells assessed as accumulation at S phase at 1.2 uM after 48 hrs by propidium iodide staining-based flow cytometry (reference value: 14.01 +/- 0.86%); format: functional
[21] = system: SW480; experiment: Cell cycle arrest in human SW480 cells assessed as accumulation at G2/M phase after 48 hrs by propidium iodide staining-based flow cytometry; format: functional
[22] = system: SW480; experiment: Cell cycle arrest in human SW480 cells assessed as accumulation at G2/M phase at 0.8 uM after 48 hrs by propidium iodide staining-based flow cytometry (reference value: 13.99 +/- 0.35%); format: functional

Compound | Ratio IC50 [1] | Ratio IC50 [2] | Ratio IC50 [3] | IC50 [4] [µM] | IC50 [5] [µM] | Ratio IC50 [6] | Ratio IC50 [7] | IC50 [8] [µM] | IC50 [9] [µM] | Ratio IC50 [10] | IC50 [11] [µM] | IC50 [12] [µM] | other results
O=c1c(CSc2cc(=O)c3ccccc3s2)coc2ccccc12 | 33.9 | 0.5 | 0.7 | 3.6 | 2.6 | 8.3 | 6.6 | 5.4 | 2.8 | 2.3 | 1.4 | 1.7 | –
Cc1nnc(SCc2coc3ccccc3c2=O)s1 | 33.9 | 0.5 | 0.7 | 1 | 2.3 | 8.3 | 6.6 | 6.7 | 0.43 | 2.3 | 2.9 | 0.63 | Activity [13]: 15.47%; Activity [14]: 38.03%; Activity [15]: 42.84%; Activity [16]: 62.5%; Activity [17]: 18.27%; Activity [18]: 54.99%; Activity [19]: 26.74%; Activity [20]: 19.13%; Activity [21]: Dose-dependent effect; Activity [22]: 22.03%
Cc1nnc(SCc2coc3ccccc3c2=O)o1 | 33.9 | 0.5 | 0.7 | 0.79 | 1.4 | 8.3 | 6.6 | 4.6 | 3.5 | 2.3 | 3.8 | 1.2 | –
Nc1nnc(SCn2cnc3ccccc3c2=O)s1 | – | – | – | > 25 | > 25 | – | – | > 25 | > 25 | – | > 25 | > 25 | –
Cc1cc(O)cc2oc(=O)cc(CSc3nc4ccccc4[nH]3)c12 | – | – | – | > 25 | > 25 | – | – | > 25 | > 25 | – | > 25 | > 25 | –
Cc1cc(C)n2nc(SCc3nnc(SCn4cnc5c(Cl)cccc5c4=O)s3)nc2n1 | – | – | – | > 25 | > 25 | – | – | > 25 | > 25 | – | > 25 | > 25 | –
Nc1nc(SCc2coc3ccccc3c2=O)n[nH]1 | – | – | – | 21.4 | > 25 | – | – | > 25 | 16.9 | – | 21.3 | 8.3 | –
O=c1cc(SCn2cnc3c(Cl)cccc3c2=O)sc2ccccc12 | – | – | – | > 25 | > 25 | – | – | > 25 | > 25 | – | > 25 | > 25 | –
Cc1cc(C)n2nc(SCc3nnc(SCc4cc(=O)c5ccccc5o4)n3-c3ccccc3)nc2n1 | – | – | – | > 25 | > 25 | – | – | > 25 | > 25 | – | > 25 | > 25 | –
